Laboratory results: PMC6271906, “Sesquiterpenes from the Brazilian Red Alga Laurencia dendroidea J. Agardh” (Molecules, 2014)

Key:
[1] = tested on: Mycobacterium bovis BCG strain Moreau; assay: microbe, parasite or virus in culture; assay type: cell-based; settings: Mycobacterium tuberculosis variant bovis BCG, 168 h, read-out: IC50 M. bovis BCG
[2] = tested on: TNF-α production by LPS-activated RAW 264.7 macrophages; assay: TNF-α production by LPS-stimulated RAW 264.7 macrophages (L929 fibroblast bioassay); assay type: cell-based, murine; settings: Mus musculus, RAW264.7, 24 h incubation
Experimental: (§1) The murine peritoneal macrophage cell line RAW 264.7 was obtained from the American Type Culture Collection (ATCC, Rockville, MD, USA) and grown at 37 °C and 5% CO2 in DMEM F-12 that was supplemented with 10% FCS and gentamicin (50 µg/mL). RAW 264.7 cells (1 × 10^5 cells/well) were seeded in flat bottom 96-well tissue culture plates (Corning Inc., Corning, NY, USA) in the presence or absence of various concentrations of the samples (100, 20 and 4 µg/mL) and/or LPS (Escherichia coli 055:B5; Sigma-Aldrich). After a 24 h incubation period, culture supernatants were collected for NO and TNF-α assays. Nitrite, a stable NO metabolite, was determined by using the Griess test. As a positive control of inhibitory activity, intact, untreated macrophages were used. As a negative control, macrophages stimulated with 1 µg/mL LPS were used. […] TNF-α was measured by an L929 fibroblast bioassay. This assay system uses murine L929 cells sensitive to TNF-α. For this, murine fibroblast cell line L929 cells (ATCC) (2 × 10^5 cells/well) were seeded in flat bottom 96-well tissue culture plates (Corning Inc.) 24 h before of being inoculated with macrophage culture supernatant and actinomycin D (2 µg/mL) added. After 24 h of incubation with macrophage culture supernatant, L929 viability was assayed by MTT [3-(4,5-dimethylthiazol-2-yl)-2,5diphenyltetrazolium bromide] method. The cytokine levels were calculated by using a purified recombinant mouse cytokine to obtain a standard curve that correlates cellular viability and TNF-α concentration.

[3] = tested on: NO production by LPS-activated RAW 264.7 macrophages; assay: NO production by LPS-stimulated RAW 264.7 macrophages (Griess test); assay type: cell-based, murine; settings: Mus musculus, RAW264.7; for IC50: LPS-stimulated RAW 264.7 macrophages, 24 h incubation
Experimental: as §1

[4] = Lactate dehydrogenase (LDH) cytotoxicity assay; assay type: cell-based, murine; settings: mouse, RAW 264.7 macrophage cells; LDH release from RAW 264.7 cells, 24 h after treatment
Experimental: (§2) LDH assay was used to evaluate the toxicity of the studied samples towards macrophage cultures. The release of LDH (cytoplasmic enzyme lactate dehydrogenase) from RAW 264.7 cells treated with samples was determined using 50 µL of cell culture supernatant collected 24 h after the treatment, as described in the previous section. The LDH release, which represents an indirect indication of cytotoxicity, was determined colorimetrically using a commercial kit (Doles Reagentes e Equipamentos para Laboratorios Ltda., Goiânia, Brazil). The specific release was calculated as a percentage of the controls: non-treated macrophages as the negative control (O.D. 0.249, cytotoxicity 1.99% ± 0.62%) and 1% Triton X-100 (Vetec Chem., Duque de Caxias, Brazil) detergent treated macrophages as the positive control (O.D. 1.278, cytotoxicity 99.95% ± 2.26%). Final concentrations of DMSO, used as the carrier solvent for the samples, were tested in parallel as a control. Cytotoxicity was shown as percentage of controls. Tests were performed in triplicate and the mean value and standard deviation were calculated.

RAW 264.7 cells = assay: Lactate dehydrogenase (LDH) cytotoxicity assay; assay type: cell-based, murine; settings: for toxicity (LDH release), in words: RAW 264.7 cells, cell viability by LDH release
Experimental: as §2

Compound	IC50 [1] [µM]	IC50 [2] [µM]	IC50 [3] [µM]	IC50 at 24 h [4] [µM]	toxicity (LDH release), in words (RAW 264.7 cells)	cytotoxicity (specific LDH release, percentage of controls) (RAW 264.7 cells; 1% detergent, positive control, RAW 264.7 macrophages)	inhibition at 20 µg/mL ([3]; positive control at 20 µg/mL) [%]
C=C1C[C@@H](O)CC(C)(C)[C@]12CCC(C)=C(Cl)C2 [Compound 3, Debromoelatol]	82.4 ± 4.7	134 ± 7.4	69.1 ± 4.7	> 392	no toxicity whatsoever		
CC1CCC23C1CCC2(C)CC(C)C3(C)O (stereo not drawn) [Compound 5, (1S*,2S*,3S*,5S*,8S*,9S*)-2,3,5,9-tetramethyltricyclo[6.3.0.01.5]undecan-2-ol]	205 ± 7.6	393.4 ± 0.4	74.6 ± 5.8	416 ± 4.9	no toxicity whatsoever		
C=C1CC[C@@H](Br)C(C)(C)[C@]12CC[C@](C)(Br)[C@@H](Cl)C2 [Compound 4, obtusane]	44.7 ± 4	> 251	44.9 ± 3	197.2 ± 1	only moderately toxic		
Triton X-100 [reference compound]						99.95% ± 2.26	
C=C1CC(O)C(Br)C(C)(C)C12CCC(C)(O)C(Cl)C2 (centres unmarked) [Compound 2]	80.2 ± 4.3	> 284	> 284	> 284	no toxicity whatsoever		
[H]/N=C(/NC)NCCC[C@H](N)C(=O)O [L-NMMA, L-N-monomethyl-arginine, reference compound]			71.3 ± 4.4				59.2
